{"source": "patent US7851474B2", "about": "“Dipiperazinyl ketones and related analogues” (Neurogen Corporation, priority 2005, dated 2010)", "target": "T1, chimeric human H3 receptor (Homo sapiens, UniProt Q9Y5N1, E19D)", "T1 construct": "made in house; host or cells: Sf9 insect cells (baculovirus infection); P2 membrane preparation", "T1 sequence (Q9Y5N1 with tags, fused parts or gaps E19D)": "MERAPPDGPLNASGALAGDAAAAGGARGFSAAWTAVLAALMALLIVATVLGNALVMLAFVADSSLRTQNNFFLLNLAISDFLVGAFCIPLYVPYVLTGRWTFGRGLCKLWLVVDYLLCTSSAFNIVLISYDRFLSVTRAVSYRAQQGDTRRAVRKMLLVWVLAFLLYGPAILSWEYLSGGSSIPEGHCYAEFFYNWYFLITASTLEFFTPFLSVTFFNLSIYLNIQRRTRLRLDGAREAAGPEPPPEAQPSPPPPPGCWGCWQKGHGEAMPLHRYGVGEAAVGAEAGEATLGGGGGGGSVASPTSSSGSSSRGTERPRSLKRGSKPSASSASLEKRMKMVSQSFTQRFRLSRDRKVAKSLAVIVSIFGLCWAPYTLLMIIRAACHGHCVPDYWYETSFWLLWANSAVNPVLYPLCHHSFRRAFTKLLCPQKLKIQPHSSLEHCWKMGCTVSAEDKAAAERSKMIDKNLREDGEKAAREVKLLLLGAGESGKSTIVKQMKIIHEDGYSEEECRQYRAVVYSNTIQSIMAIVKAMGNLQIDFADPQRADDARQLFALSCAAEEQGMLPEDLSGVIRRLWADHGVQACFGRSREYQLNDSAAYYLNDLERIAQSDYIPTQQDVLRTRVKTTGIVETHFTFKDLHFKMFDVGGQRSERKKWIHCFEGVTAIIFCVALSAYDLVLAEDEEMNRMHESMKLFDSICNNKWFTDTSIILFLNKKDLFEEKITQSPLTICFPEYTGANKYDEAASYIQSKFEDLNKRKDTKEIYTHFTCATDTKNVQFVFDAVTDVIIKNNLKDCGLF", "experiment": "Chimeric human H3 receptor screening GTP binding assay (inhibition of histamine-stimulated GTP-gamma35S binding, Example 8)", "type": "biochemical", "conditions": "1 h, read-out: percent inhibition of agonist-induced GTP-gammaS binding to H3", "summary_of_the_method": "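Data are percent inhibition of the 1 μM histamine-stimulated GTP-gamma35S (125 pM) binding, after non-specific binding (10 uM GTP-gammaS) is subtracted. Test compound at 4 μM. Incubation was 60 min at room temperature with Sf9 membranes bearing receptor plus G-protein subunits, buffer pH 7.4 with 10 μM GDP, and filtration read-out.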", "key": {"[1]": {"conditions": "\"+\" in Ki of Table II, assay of Example 8"}, "[2]": {"conditions": "assay described in Example 8, symbol + in column headed Ki of Table II"}, "[3]": {"conditions": "Table II \"Ki\", symbol \"+\": assay described in Example 8"}, "[4]": {"conditions": "Table II, \"+\" in the column headed Ki, assay of Example 8"}}, "note": "Where two headings read alike, the source gives them in different places."}
{"smiles": "COc1ccc(CC(=O)N2CCN(CC(=O)N3CCN(C4CCC4)CC3)CC2)cc1OC", "note": "[Compound 547, 1-cyclobutyl-4-({4-[(3,4-dimethoxyphenyl)acetyl]piperazin-1-yl}acetyl)piperazine]", "values": [{"measurement": "inhibition at 4 µM", "setting": "[1]", "value": "> 90", "unit": "%"}]}
{"smiles": "O=C(COc1ccc(Cl)cc1)N1CCN(CC(=O)N2CCN(C3CCC3)CC2)CC1", "note": "[Compound 406, 1-[(4-chlorophenoxy)acetyl]-4-[2-(4-cyclobutylpiperazin-1-yl)-2-oxoethyl]piperazine]", "values": [{"measurement": "inhibition at 4 µM", "setting": "[2]", "value": "> 90", "unit": "%"}]}
{"smiles": "COc1cc(Cl)ccc1OCC(=O)N1CCN(CC(=O)N2CCN(C3CCC3)CC2)CC1", "note": "[Compound 404, 1-[(4-chloro-2-methoxyphenoxy)acetyl]-4-[2-(4-cyclobutylpiperazin-1-yl)-2-oxoethyl]piperazine]", "values": [{"measurement": "inhibition at 4 µM", "setting": "[2]", "value": "> 90", "unit": "%"}]}
{"smiles": "O=C(CN1CCN(C(=O)c2sccc2Br)CC1)N1CCN(C2CCC2)CC1", "note": "[Compound 395, 1-[(3-bromo-2-thienyl)carbonyl]-4-[2-(4-cyclobutylpiperazin-1-yl)-2-oxoethyl]piperazine]", "values": [{"measurement": "inhibition at 4 µM", "setting": "[2]", "value": "> 90", "unit": "%"}]}
{"smiles": "O=C(COc1ccccc1)N1CCN(CC(=O)N2CCN(C3CCC3)CC2)CC1", "note": "[Compound 797, 1-cyclobutyl-4-{[4-(phenoxyacetyl)piperazin-1-yl]acetyl}piperazine]", "values": [{"measurement": "inhibition at 4 µM", "setting": "[3]", "value": "> 90", "unit": "%"}]}
{"smiles": "O=C(CN1CCN(C(=O)c2ccc3c(c2)OCO3)CC1)N1CCN(C2CCC2)CC1", "note": "[Compound 260, 1-(1,3-benzodioxol-5-ylcarbonyl)-4-[2-(4-cyclobutylpiperazin-1-yl)-2-oxoethyl]piperazine]", "values": [{"measurement": "inhibition at 4 µM", "setting": "[2]", "value": "> 90", "unit": "%"}]}
{"smiles": "CCCOc1ccc(C(=O)N2CCN(CC(=O)N3CCN(C4CCC4)CC3)CC2)cc1", "note": "[Compound 788, 1-cyclobutyl-4-{[4-(4-propoxybenzoyl)piperazin-1-yl]acetyl}piperazine]", "values": [{"measurement": "inhibition at 4 µM", "setting": "[3]", "value": "> 90", "unit": "%"}]}
{"smiles": "Cc1cc(Cl)ccc1OCC(=O)N1CCN(CC(=O)N2CCN(C3CCC3)CC2)CC1", "note": "[Compound 405, 1-[(4-chloro-2-methylphenoxy)acetyl]-4-[2-(4-cyclobutylpiperazin-1-yl)-2-oxoethyl]piperazine]", "values": [{"measurement": "inhibition at 4 µM", "setting": "[2]", "value": "> 90", "unit": "%"}]}
{"smiles": "O=C(CN1CCN(C(=O)c2ccccc2Oc2ccccc2)CC1)N1CCN(C2CCC2)CC1", "note": "[Compound 718, 1-cyclobutyl-4-{[4-(2-phenoxybenzoyl)piperazin-1-yl]acetyl}piperazine]", "values": [{"measurement": "inhibition at 4 µM", "setting": "[4]", "value": "> 90", "unit": "%"}]}
{"smiles": "O=C(CN1CCN(C(=O)c2ccc(OC(F)F)cc2)CC1)N1CCN(C2CCC2)CC1", "note": "[Compound 596, 1-cyclobutyl-4-({4-[4-(difluoromethoxy)benzoyl]piperazin-1-yl}acetyl)piperazine]", "values": [{"measurement": "inhibition at 4 µM", "setting": "[4]", "value": "> 90", "unit": "%"}]}
{"smiles": "CCOc1ccc(C(=O)N2CCN(CC(=O)N3CCN(C4CCC4)CC3)CC2)cc1OCC", "note": "[Compound 728, 1-cyclobutyl-4-{[4-(3,4-diethoxybenzoyl)piperazin-1-yl]acetyl}piperazine]", "values": [{"measurement": "inhibition at 4 µM", "setting": "[4]", "value": "> 90", "unit": "%"}]}
{"smiles": "Nc1cc(Cl)ccc1C(=O)N1CCN(CC(=O)N2CCN(C3CCC3)CC2)CC1", "note": "[Compound 1163, 5-chloro-2-({4-[2-(4-cyclobutylpiperazin-1-yl)-2-oxoethyl]piperazin-1-yl}carbonyl)aniline]", "values": [{"measurement": "inhibition at 4 µM", "setting": "assay of Example 8, \"+\" in Ki of Table II", "value": "> 90", "unit": "%"}]}
{"smiles": "COc1ccc(Cl)cc1C(=O)N1CCN(CC(=O)N2CCN(C3CCC3)CC2)CC1", "note": "[Compound 364, 1-(5-chloro-2-methoxybenzoyl)-4-[2-(4-cyclobutylpiperazin-1-yl)-2-oxoethyl]piperazine]", "values": [{"measurement": "inhibition at 4 µM", "setting": "[2]", "value": "> 90", "unit": "%"}]}
{"smiles": "O=C(CN1CCN(C(=O)c2ccc(Cl)cc2)CC1)N1CCN(C2CCC2)CC1", "note": "[Compound 354, 1-(4-chlorobenzoyl)-4-[2-(4-cyclobutylpiperazin-1-yl)-2-oxoethyl]piperazine]", "values": [{"measurement": "inhibition at 4 µM", "setting": "[2]", "value": "> 90", "unit": "%"}]}
{"smiles": "CCc1ccc(C(=O)N2CCN(CC(=O)N3CCN(C4CCC4)CC3)CC2)s1", "note": "[Compound 568, 1-cyclobutyl-4-({4-[(5-ethyl-2-thienyl)carbonyl]piperazin-1-yl}acetyl)piperazine]", "values": [{"measurement": "inhibition at 4 µM", "setting": "[1]", "value": "> 90", "unit": "%"}]}
{"smiles": "O=C(CN1CCN(C(=O)c2ccc(-n3cccc3)nc2)CC1)N1CCN(C2CCC2)CC1", "note": "[Compound 635, 1-cyclobutyl-4-[(4-{[6-(1H-pyrrol-1-yl)pyridin-3-yl]carbonyl}piperazin-1-yl)acetyl]piperazine]", "values": [{"measurement": "inhibition at 4 µM", "setting": "[4]", "value": "> 90", "unit": "%"}]}
{"smiles": "O=C(CN1CCN(C(=O)c2ccccn2)CC1)N1CCN(C2CCC2)CC1", "note": "[Compound 799, 1-cyclobutyl-4-{[4-(pyridin-2-ylcarbonyl)piperazin-1-yl]acetyl}piperazine]", "values": [{"measurement": "inhibition at 4 µM", "setting": "[3]", "value": "> 90", "unit": "%"}]}
{"smiles": "CC(C)C(C(=O)N1CCN(CC(=O)N2CCN(C3CCC3)CC2)CC1)c1ccccc1", "note": "(stereo not drawn) [Compound 760, 1-cyclobutyl-4-{[4-(3-methyl-2-phenylbutanoyl)piperazin-1-yl]acetyl}piperazine]", "values": [{"measurement": "inhibition at 4 µM", "setting": "[4]", "value": "> 90", "unit": "%"}]}
{"smiles": "COc1cc(C(=O)N2CCN(CC(=O)N3CCN(C4CCC4)CC3)CC2)cc(OC)c1OC", "note": "[Compound 724, 1-cyclobutyl-4-{[4-(3,4,5-trimethoxybenzoyl)piperazin-1-yl]acetyl}piperazine]", "values": [{"measurement": "inhibition at 4 µM", "setting": "[4]", "value": "> 90", "unit": "%"}]}
{"smiles": "CCCCOc1ccc(C(=O)N2CCN(CC(=O)N3CCN(C4CCC4)CC3)CC2)cc1", "note": "[Compound 340, 1-(4-butoxybenzoyl)-4-[2-(4-cyclobutylpiperazin-1-yl)-2-oxoethyl]piperazine]", "values": [{"measurement": "inhibition at 4 µM", "setting": "[2]", "value": "> 90", "unit": "%"}]}
{"smiles": "O=C(Cc1ccc(F)cc1)N1CCN(CC(=O)N2CCN(C3CCC3)CC2)CC1", "note": "[Compound 559, 1-cyclobutyl-4-({4-[(4-fluorophenyl)acetyl]piperazin-1-yl}acetyl)piperazine]", "values": [{"measurement": "inhibition at 4 µM", "setting": "[1]", "value": "> 90", "unit": "%"}]}
{"smiles": "O=C(COc1ccc(Cl)cc1Cl)N1CCN(CC(=O)N2CCN(C3CCC3)CC2)CC1", "note": "[Compound 504, 1-cyclobutyl-4-({4-[(2,4-dichlorophenoxy)acetyl]piperazin-1-yl}acetyl)piperazine]", "values": [{"measurement": "inhibition at 4 µM", "setting": "[1]", "value": "> 90", "unit": "%"}]}
{"smiles": "O=C(COc1ccc2ccccc2c1)N1CCN(CC(=O)N2CCN(C3CCC3)CC2)CC1", "note": "[Compound 540, 1-cyclobutyl-4-({4-[(2-naphthyloxy)acetyl]piperazin-1-yl}acetyl)piperazine]", "values": [{"measurement": "inhibition at 4 µM", "setting": "[1]", "value": "> 90", "unit": "%"}]}
{"smiles": "Cc1onc(-c2c(Cl)cccc2Cl)c1C(=O)N1CCN(CC(=O)N2CCN(C3CCC3)CC2)CC1", "note": "[Compound 624, 1-cyclobutyl-4-[(4-{[3-(2,6-dichlorophenyl)-5-methylisoxazol-4-yl]carbonyl}piperazin-1-yl)acetyl]piperazine]", "values": [{"measurement": "inhibition at 4 µM", "setting": "[4]", "value": "> 90", "unit": "%"}]}
{"smiles": "O=C(C=Cc1ccccc1F)N1CCN(CC(=O)N2CCN(C3CCC3)CC2)CC1", "note": "[Compound 524, 1-cyctobutyl-4-({4-[(2E)-3-(2-fluorophenyl)prop-2-enoyl]piperazin-1-yl}acetyl)piperazine]", "values": [{"measurement": "inhibition at 4 µM", "setting": "[1]", "value": "> 90", "unit": "%"}]}
{"smiles": "O=C(CN1CCN(C(=O)c2cnc3ccccc3c2)CC1)N1CCN(C2CCC2)CC1", "note": "[Compound 985, 3-({4-[2-(4-cyclobutylpiperazin-1-yl)-2-oxoethyl]piperazin-1-yl}carbonyl)quinoline]", "values": [{"measurement": "inhibition at 4 µM", "setting": "Table II, assay of Example 8, \"+\" in Ki", "value": "> 90", "unit": "%"}]}
{"smiles": "O=C(CN1CCN(C(=O)c2ccno2)CC1)N1CCN(C2CCC2)CC1", "note": "[Compound 795, 1-cyclobutyl-4-{[4-(isoxazol-5-ylcarbonyl)piperazin-1-yl]acetyl}piperazine]", "values": [{"measurement": "inhibition at 4 µM", "setting": "[3]", "value": "> 90", "unit": "%"}]}
{"smiles": "O=C(CN1CCN(C(=O)c2cc(Cl)cc(Cl)c2)CC1)N1CCN(C2CCC2)CC1", "note": "[Compound 738, 1-cyclobutyl-4-{[4-(3,5-dichlorobenzoyl)piperazin-1-yl]acetyl}piperazine]", "values": [{"measurement": "inhibition at 4 µM", "setting": "[4]", "value": "> 90", "unit": "%"}]}
{"smiles": "O=C(CN1CCN(C(=O)C(c2ccccc2)C2CCCCC2)CC1)N1CCN(C2CCC2)CC1", "note": "(stereo not drawn) [Compound 612, 1-cyclobutyl-4-({4-[cyclohehexyl(phenyl)acetyl]piperazin-1-yl}acetyl)piperazine]", "values": [{"measurement": "inhibition at 4 µM", "setting": "[4]", "value": "> 90", "unit": "%"}]}
{"smiles": "O=C(/C=C/c1ccccc1Cl)N1CCN(CC(=O)N2CCN(C3CCC3)CC2)CC1", "note": "[Compound 389, 1-[(2E)-3-(2-chlorophenyl)prop-2-enoyl]-4-[2-(4-cyclobutylpiperazin-1-yl)-2-oxoethyl]piperazine]", "values": [{"measurement": "inhibition at 4 µM", "setting": "[2]", "value": "> 90", "unit": "%"}]}
{"smiles": "O=C(/C=C/c1ccc(C(F)(F)F)cc1)N1CCN(CC(=O)N2CCN(C3CCC3)CC2)CC1", "note": "[Compound 616, 1-cyclobutyl-4-[(4-{(2E)-3-[4-(trifluoromethyl)phenyl]prop-2-enoyl}piperazin-1-yl)acetyl]piperazine]", "values": [{"measurement": "inhibition at 4 µM", "setting": "[4]", "value": "> 90", "unit": "%"}]}
{"smiles": "O=C(CN1CCN(C(=O)c2cccnc2Sc2ccc(Cl)cc2)CC1)N1CCN(C2CCC2)CC1", "note": "[Compound 256, 1-({2-[(4-chlorophenyl)thio]pyridin-3-yl}carbonyl)-4-[2-(4-cyclobutylpiperazin-1-yl)-2-oxoethyl]piperazine]", "values": [{"measurement": "inhibition at 4 µM", "setting": "[2]", "value": "> 90", "unit": "%"}]}
{"smiles": "O=C(CN1CCN(C(=O)c2cccc(C(F)(F)F)c2)CC1)N1CCN(C2CCC2)CC1", "note": "[Compound 588, 1-cyclobutyl-4-({4-[3-(trifluoromethyl)benzoyl]piperazin-1-yl}acetyl)piperazine]", "values": [{"measurement": "inhibition at 4 µM", "setting": "[4]", "value": "> 90", "unit": "%"}]}
{"smiles": "Cc1ccc(C)c(OCC(=O)N2CCN(CC(=O)N3CCN(C4CCC4)CC3)CC2)c1", "note": "[Compound 510, 1-cyclobutyl-4-({4-[(2,5-dimethylphenoxy)acetyl]piperazin-1-yl}acetyl)piperazine]", "values": [{"measurement": "inhibition at 4 µM", "setting": "[1]", "value": "> 90", "unit": "%"}]}
{"smiles": "O=C(Cc1ccccc1OCc1ccccc1)N1CCN(CC(=O)N2CCN(C3CCC3)CC2)CC1", "note": "[Compound 476, 1-{[2-(benzyloxy)phenyl]acetyl}-4-[2-(4-cyclobutylpiperazin-1-yl)-2-oxoethyl]piperazine]", "values": [{"measurement": "inhibition at 4 µM", "setting": "[1]", "value": "> 90", "unit": "%"}]}
{"smiles": "O=C(CN1CCN(C(=O)c2ccc3ccccc3c2)CC1)N1CCN(C2CCC2)CC1", "note": "[Compound 716, 1-cyclobutyl-4-{[4-(2-naphthoyl)piperazin-1-yl]acetyl}piperazine]", "values": [{"measurement": "inhibition at 4 µM", "setting": "[4]", "value": "> 90", "unit": "%"}]}
